We go through nine molecules from US6372501B1, “Glucose responsive β-cell line” (Aberdeen University, priority 1997, dated 2002).

Data set [1] deals with voltage-gated Ca2+ channels. The data set is classed as cell-based, human.
Data set [2] relates to voltage-gated Ca2+ channels. The data set is classed as cell-based, human. This is another data set of the same source.
Data set [3] deals with recombinant KATP channels. Briefly: Patch-clamp recording of recombinant KATP channels in NISK 9 β-cells. The data set is classed as cell-based, human. As to conditions: for effect of nucleotides on recombinant KATP channels: ADP in the presence of inhibitory concentration of ATP; for effect on K+ channel in inside-out patch: NISK 9 β-cell, same inside-out patch, ATP 500 μM, diazoxide 500 μM in the presence of ATP, tolbutamide 250 μM, efaroxan 200 μM; for effect on recombinant KATP channels: NISK 9 β-cells, cell attached (n=4) and inside-out patch (n=5). Here is the method:
In panel A, all data come from the same inside-out patch recording. […] When recorded using symmetrical 140 mM KCl-rich solutions on either side of the cell membrane the channel has an inwardly-retifying relationship, with an estimated inward current conductance of approximately 70 pS. See also claim 11 hereinafter.
Panels A and B were obtained under the same conditions as illustrated in FIG. 9. […] In panel B, tolbutamide is shown to inhibit diazoxide-activated KATP channels in an inside-out patch; note that when this configuration is used, ATP must be added to the inside face of the cell membrane to facilitate diazoxide-induced K^+ channel activation. Mean data from several experiments are also illustrated in panels A and B. See also claim 11 hereinafter.
All data comes from the same membrane recording: an inside-out patch record obtained from a NISK 9 β-cell. […] Closure of KATP channels was also associated with a rise in the cytosolic concentration ([Ca^2+]1), not shown. Thus, the Δ[Ca^2+]1 for tolbutamide was found, on average to be 158+/−24 nM (n=22), and for efaroxan 195+/−40 nM (n=12). See also claim 11 hereinafter.
(§1) All data were obtained from either primary cultured human islet cells (control) or from NES 2Y β-cells(transfected and untransfected) by patch-clamp techniques.
(§2) Standard KCl- and NaCl-rich solutions were used in all electophysiology recordings to provide quasi-physiological cationic gradients. Procedures used for data collection and analysis were described previously.
(In general: In patch-clamp work, channel activity is measured electrically.)

For another data set, the system named is untransfected cells. The conditions noted are these: 800 μg/ml G418 (data not shown).
Data set [4] relates to NES 2Y β-cells. Briefly: Ca2+ microfluorimetry (fura-2) in NES 2Y β-cells. As to conditions: KCl 40 mM, tolbutamide 0.2 mM, glucose 20 mM. The data set is classed as cell-based, human. Here is the method: (§3) Ca^2+ microfluorimetry experiments were performed with fura-2-loaded cells and intact islets as described previously.
Data set [5] deals with NISK 9 β-cells. Briefly: Ca2+ microfluorimetry (fura-2) in NISK 9 β-cells. The data set is classed as cell-based, human. As to conditions: for effect on cytosolic Ca2+ ([Ca2+]i): glucose n=8, n=22, KCl 40 mM n=22; for Δ[Ca2+]i, rise in the cytosolic concentration: average, tolbutamide n=22, efaroxan n=12. As to the method:
as §3

The subject of data set [6] is NES 2Y β-cells. Briefly: Insulin release (radioimmunoassay) from NES 2Y β-cells. It counts as cell-based, human. As to conditions: 40 mM KCl, 0.2 mM tolbutamide, glucose. As to the method: (§4) Insulin was measured by radioimmunoassay using an anti-human insulin antibody (Linco, UK) and ^125I-human insulin, as previously described.
Data set [7] deals with NISK 9 β-cells. The data set is described as follows: Insulin release (radioimmunoassay) from NISK 9 β-cells. It counts as cell-based, human. As to conditions: glucose 0.5-16 mM, KCl 40 mM, tolbutamide 0.2 mM. Here is the method:
NISK 9 cells (NES 2Y cells stably transfected with IUF1, Sur1 and Kir 6.2) were preincubated for 180 minutes in media containing 0.5 mM glucose. The media was then replaced with that containing the indicated concentrations of glucose, and the media samples assayed for insulin by radioimmunoassay after a further 60 minutes incubation. The data are presentative of two experiments, and show the mean +/− standard deviation of 6 separate determinations. The NISK9 cell line is shown to secrete insulin in response to changes in glucose in the physiological concentration range.
as §4

Data set [8] addresses T1, KATP channels (Homo sapiens, UniProt Q09428+Q14654).
T1 construct: primary cultured human islet cells (control); endogenous in cells; host or cells: primary cultured human islet beta-cells
The data set is described as follows: Patch-clamp recording of KATP channels in control human β-cells. As to conditions: cell attached configuration, diazoxide 500 μM, tolbutamide 200 μM. It counts as cell-based.
Excerpt: (In the record shown, the maximum number of coincident open ion channel events is increased from 3 to 30). Under the same experimental conditions none of these agents had any action on ion channel events in the NES 2Y β-cells. Similar data were obtained in 4 (panel A) and 18 (panel B) other control experiments, and in a total of N=10 (panel A) and n=10 (panel B) NES 2Y β-cells experiments. Note that upward deflections represent outward current events, and that the broken lines indicate the zero current level which corresponds to closure of all K^+ channels. The same ionic gradients were used for each of the experimental protocols described, and all data are plotted to the same scales in each panel.
as §1, §2

For data set [9], the system named is KATP channels. The data set is described as follows: Patch-clamp recording of KATP channels in NES 2Y β-cells. The conditions noted are these: intact cells (diazoxide 0.5 mM) or cell-free patches (cocktail). It counts as cell-based, human.
Data set [10] deals with voltage-gated Na+ channels. It counts as cell-based, human.
In data set [11] the test system is voltage-gated Na+ channels. It counts as cell-based, human. This is another data set of the same source.

“Also recorded” adds a separate entry of the source. Like-named read-outs stand apart in the source and are kept apart here.

T1 sequence (Q09428 whole entry): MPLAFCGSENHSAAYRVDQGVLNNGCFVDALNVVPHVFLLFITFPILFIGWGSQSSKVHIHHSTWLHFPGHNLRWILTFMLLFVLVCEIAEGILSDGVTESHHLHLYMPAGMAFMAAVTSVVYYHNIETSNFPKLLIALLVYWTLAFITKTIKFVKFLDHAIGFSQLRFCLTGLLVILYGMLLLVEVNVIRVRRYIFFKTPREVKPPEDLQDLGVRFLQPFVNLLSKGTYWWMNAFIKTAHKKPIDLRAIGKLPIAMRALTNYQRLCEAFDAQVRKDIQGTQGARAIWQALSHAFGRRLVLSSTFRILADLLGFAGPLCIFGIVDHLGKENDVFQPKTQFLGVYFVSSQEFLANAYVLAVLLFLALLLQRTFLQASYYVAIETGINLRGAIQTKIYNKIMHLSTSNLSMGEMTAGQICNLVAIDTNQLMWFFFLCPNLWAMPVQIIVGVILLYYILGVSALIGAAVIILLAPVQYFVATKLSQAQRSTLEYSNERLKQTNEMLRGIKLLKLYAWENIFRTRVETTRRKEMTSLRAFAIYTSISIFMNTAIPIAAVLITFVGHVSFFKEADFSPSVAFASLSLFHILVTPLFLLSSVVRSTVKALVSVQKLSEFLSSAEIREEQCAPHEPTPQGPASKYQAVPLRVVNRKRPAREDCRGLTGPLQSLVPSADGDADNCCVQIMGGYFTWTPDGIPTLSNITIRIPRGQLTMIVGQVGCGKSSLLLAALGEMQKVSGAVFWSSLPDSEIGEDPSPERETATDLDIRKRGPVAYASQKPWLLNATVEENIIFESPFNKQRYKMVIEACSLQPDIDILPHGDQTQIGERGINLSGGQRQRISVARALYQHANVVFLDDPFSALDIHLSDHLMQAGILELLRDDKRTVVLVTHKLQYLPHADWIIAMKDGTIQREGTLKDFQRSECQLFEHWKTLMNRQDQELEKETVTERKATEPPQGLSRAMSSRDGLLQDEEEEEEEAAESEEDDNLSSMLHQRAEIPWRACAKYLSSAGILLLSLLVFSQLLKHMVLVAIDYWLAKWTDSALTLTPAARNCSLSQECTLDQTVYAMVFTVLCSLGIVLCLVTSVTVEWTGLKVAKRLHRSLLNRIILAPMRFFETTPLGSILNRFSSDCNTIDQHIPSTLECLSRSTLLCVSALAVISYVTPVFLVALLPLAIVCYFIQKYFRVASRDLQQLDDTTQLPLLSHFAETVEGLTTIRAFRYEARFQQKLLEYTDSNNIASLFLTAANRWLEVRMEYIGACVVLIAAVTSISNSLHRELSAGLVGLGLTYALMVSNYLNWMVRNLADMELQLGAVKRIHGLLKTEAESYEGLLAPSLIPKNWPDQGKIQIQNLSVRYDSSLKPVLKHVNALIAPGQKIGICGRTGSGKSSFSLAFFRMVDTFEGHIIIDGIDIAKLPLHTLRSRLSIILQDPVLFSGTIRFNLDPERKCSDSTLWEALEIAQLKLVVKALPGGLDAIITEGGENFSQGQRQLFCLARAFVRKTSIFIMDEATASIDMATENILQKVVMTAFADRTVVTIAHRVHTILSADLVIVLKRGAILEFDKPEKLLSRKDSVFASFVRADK
T1 sequence (Q14654 whole entry): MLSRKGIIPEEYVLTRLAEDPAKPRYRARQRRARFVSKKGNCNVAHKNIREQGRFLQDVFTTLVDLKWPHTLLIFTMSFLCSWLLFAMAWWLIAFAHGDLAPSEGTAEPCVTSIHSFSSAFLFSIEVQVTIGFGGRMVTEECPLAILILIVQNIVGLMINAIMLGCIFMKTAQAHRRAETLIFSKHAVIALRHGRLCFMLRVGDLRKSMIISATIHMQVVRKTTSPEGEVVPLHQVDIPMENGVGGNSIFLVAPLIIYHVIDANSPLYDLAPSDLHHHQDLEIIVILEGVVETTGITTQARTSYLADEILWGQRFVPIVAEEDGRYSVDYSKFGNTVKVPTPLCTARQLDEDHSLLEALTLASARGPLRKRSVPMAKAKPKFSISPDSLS

In the case of `COC(=O)C1=C(C)NC(C)=C([N+](=O)[O-])C1c1ccccc1C(F)(F)F` (racemic) [(+/−) BAY K-8644], the “effect on Ttx-insensitive currents” value in data set [1] and in [2] was “activation” each time.

On to `Nc1ncnc2c1ncn2[C@@H]1O[C@H](COP(=O)(O)OP(=O)(O)O)[C@@H](O)[C@H]1O` [ADP], for which the “effect of nucleotides on recombinant KATP channels” value in data set [3] (NISK β-cells, inside-out patch) is “activated; also recorded: reversible recovery from closure”.

Regarding `Nc1ncnc2c1ncn2[C@@H]1O[C@H](COP(=O)(O)OP(=O)(O)OP(=O)(O)O)[C@@H](O)[C@H]1O` [ATP], the “effect on K+ channel in inside-out patch” value in data set [3] was “channel block”. Besides, the IC50 in data set [3] (NISK β-cells, inside-out patch, ATP 0.005-1 mM, n=4, read-out: 50% inhibition of KATP channels) lay within 5 to 10 µM. The “effect of nucleotides on recombinant KATP channels” value in data set [3] (NISK β-cells, inside-out patch) is recorded as “inhibition of channels”.

On to `CN[C@@H]1[C@@H](O)[C@@H](O[C@@H]2[C@@H](O)[C@H](O[C@H]3O[C@H]([C@@H](C)O)[C@@H](O)[C@H](O)[C@H]3N)[C@@H](N)C[C@H]2N)OC[C@]1(C)O` [G418], for which the “time to toxic cell death” value in the data set with untransfected cells was at most 12 h.

With `[Cl-].[K+]` [KCl], the “effect on cytosolic Ca2+ ([Ca2+]i)” value with NES 2Y β-cells [4] is “no elevation of [Ca^2+]i”; in the data set on NISK 9 β-cells [5], “raise [Ca^2+]i”. Also, in the data set on NES 2Y β-cells [6], the insulin release result is reported as “fail to release insulin”. In addition, the insulin secretion entry in the data set with NISK 9 β-cells [7] was “regulated insulin secretion”.

For `CC1=NS(=O)(=O)c2cc(Cl)ccc2N1` [diazoxide], on KATP channels [8], the “effect on spontaneously open KATP channels” value is “activated”. Moreover, the “effect on KATP channel activity / ion channel events” value in the data set with KATP channels [9] was “no response”. Also, in data set [3], the “effect on K+ channel in inside-out patch” value is reported as “activation” and the “effect on recombinant KATP channels” value is “activated”. Besides, in the data set on NISK 9 β-cells [5] (n=5), the “effect on the glucose-induced rise in [Ca2+]i” value was “inhibited”.

With `CCC1(C2=NCCN2)Cc2ccccc2O1` (stereo not drawn) [efaroxan], the “effect on K+ channel in inside-out patch” value in data set [3] is on record as “channel inhibition”. Besides, the “KATP channel activity remaining, % of the immediate control value” in data set [3] (isolated patches, 0.2 mM efaroxan, n=3) is on record as 8.5±5.6%. Moreover, the “Δ[Ca2+]i, rise in the cytosolic concentration” value in the data set with NISK 9 β-cells [5] was 195 ± 40 nM.

Regarding `NC1=N[C@H](O)[C@H]2[C@H]3O[C@]4(O)O[C@@H]([C@@H](O)[C@@]2(N1)[C@@H]4O)[C@]3(O)CO` [tetrodotoxin], the “effect on voltage-gated currents” value in [10] and in data set [11] was “inhibition” each time.

In the case of `CCCCNC(=O)NS(=O)(=O)c1ccc(C)cc1` [tolbutamide], on KATP channels [8], the “effect on spontaneously open KATP channels” value is listed as “inhibited”. Further, in [3], the “effect on K+ channel in inside-out patch” value is reported as “channel inhibition” and the “effect on recombinant KATP channels” value is “inhibited”. In addition, the “KATP channel activity remaining, % of the control value” in data set [3] (isolated patches, 0.25 mM tolbutamide, n=3) was determined as 40.8±8.5%. Moreover, the “effect on cytosolic Ca2+ ([Ca2+]i)” value in the data set on NES 2Y β-cells [4] was “no elevation of [Ca^2+]i”. In the data set on NISK 9 β-cells [5], the “Δ[Ca2+]i, rise in the cytosolic concentration” value is 158 ± 24 nM and the “effect on cytosolic Ca2+ ([Ca2+]i)” value was “raise [Ca^2+]i”. The insulin release entry in the data set with NES 2Y β-cells [6] is “fail to release insulin”. Besides, in the data set on NISK 9 β-cells [7], the insulin secretion result was “regulated insulin secretion”.
